From BindingDB's records for PubMed 8531090 (Roche Bioscience, 1995)
Positions of bridges follow the written chain, without caps; N, C: chain ends. Non-standard residues stand in square brackets, D forms with d. Residues, ends and D or L forms follow the SMILES beside them. Chains are numbered I, II in the order given. Dap = NC[C@H](N)C(=O)O

Target: T1, Neuropeptide Y receptor type 1 (Rattus norvegicus, UniProt P21555)
T1 sequence (P21555 whole entry): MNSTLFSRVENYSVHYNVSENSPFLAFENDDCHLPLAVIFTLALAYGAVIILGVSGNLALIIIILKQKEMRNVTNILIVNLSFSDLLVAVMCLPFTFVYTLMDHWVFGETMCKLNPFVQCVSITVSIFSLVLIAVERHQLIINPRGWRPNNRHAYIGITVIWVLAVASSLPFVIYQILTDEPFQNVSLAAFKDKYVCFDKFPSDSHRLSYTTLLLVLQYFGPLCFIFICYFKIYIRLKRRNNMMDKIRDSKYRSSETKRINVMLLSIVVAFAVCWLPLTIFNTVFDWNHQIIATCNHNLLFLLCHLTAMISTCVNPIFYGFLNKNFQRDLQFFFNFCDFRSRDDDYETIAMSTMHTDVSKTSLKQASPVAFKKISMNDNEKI

CC[C@H](C)[C@H](N)C(=O)N[C@H]1CCC(=O)NC[C@@H](C(=O)N[C@@H](Cc2ccc(O)cc2)C(=O)N[C@@H](CCCN=C(N)N)C(=O)N[C@@H](CC(C)C)C(=O)N[C@@H](CCCN=C(N)N)C(=O)N[C@@H](Cc2ccc(O)cc2)C(N)=O)NC(=O)[C@@H]2CCCN2C(=O)[C@@H](NC(=O)[C@@H](N)[C@@H](C)CC)CCC(=O)NC[C@@H](C(=O)N[C@@H](Cc2ccc(O)cc2)C(=O)N[C@@H](CCCN=C(N)N)C(=O)N[C@@H](CC(C)C)C(=O)N[C@@H](CCCN=C(N)N)C(=O)N[C@@H](Cc2ccc(O)cc2)C(N)=O)NC(=O)[C@@H]2CCCN2C1=O [1229U91] (I: H-IEP[Dap]YRLRY-NH2 / II: H-IEP[Dap]YRLRY-NH2; amide I:2-II:4, I:4-II:2)
Ki: 12.6 nM
